Source: patent US11452709B2, “Compositions and methods for preventing and treating radiation-induced bystander effects caused by radiation or radiotherapy” (The Regents of the University of Colorado, priority 2017, dated 2022)
Read-outs that look alike come from different tables or passages of the source.

How the values were obtained:
[1] = target: T1, C. elegans CPR-4 protease (Caenorhabditis elegans, UniProt P43508); assay: CPR-4 protease activity inhibition in vitro (z-Arg-Arg-AMC substrate); format: biochemical; settings: 1 mM of each compound; read-out: Inhibition rate(%) of the C. elegans CPR-4 protease activity
T1 construct: a cpr-4 cDNA fragment encoding residues 16-336 was PCR amplified from the full-length cpr-4 cDNA clone; GST (N, cleaved yes); made in house; host or cells: Escherichia coli BL21(DE3)
T1 sequence (P43508 81-335): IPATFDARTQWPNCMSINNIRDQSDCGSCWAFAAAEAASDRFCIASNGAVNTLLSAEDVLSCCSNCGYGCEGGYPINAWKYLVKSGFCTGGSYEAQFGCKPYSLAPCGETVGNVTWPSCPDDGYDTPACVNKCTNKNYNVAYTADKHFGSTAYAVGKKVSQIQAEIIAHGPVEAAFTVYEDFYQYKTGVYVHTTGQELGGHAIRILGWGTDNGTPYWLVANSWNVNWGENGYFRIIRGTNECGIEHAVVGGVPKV

CTSB protease = target: T2, CTSB protease (Homo sapiens, UniProt P07858); assay: CTSB protease activity inhibition in vitro (z-Arg-Arg-AMC substrate); format: biochemical; settings: for Inhibition rate (%) of the CTSB protease activity / inhibition at 1000 µM: 1 mM of each compound; for inhibition at 1000 µM: read-out: Inhibition rate (%) of the CTSB protease activity
T2 construct: purchased Sino Biological Inc. 10483-H08H-10

[2] = tested on: Phsp-4::gfp stress-response reporter; assay: Phsp-4::gfp stress response assay in unexposed posterior region after localized UV irradiation (LUI); format: in vivo, C. elegans; settings: zcls4 L1 larvae treated with 1 mM compound for 48 h (FIG. 17)
N2 animals = assay: Embryonic lethality assay in liquid media with purified proteins; format: in vivo, C. elegans; settings: 2.8 μM tCPR-4 proteins or 0.27 μM rhCTSB, 48 hours
Method: Embryonic lethality and larval arrest assays. For embryonic lethality assays caused by direct irradiation, after irradiated with 100 J/m^2 UV or 500 Gy gamma ray, gravid adults were placed on NGM plates to lay eggs for 4 hours at 25° C. and then removed from the plates. For embryonic lethality assays in liquid media, L4 larvae were cultured in conditioned medium or S-Medium containing the purified proteins at 20° C. for 48 hours, transferred to fresh NGM plates from the liquid media, and allowed to lay eggs for 4 hours at 25° C., before the adult animals were removed. For embryonic lethality assays in transgenic animals expressing CPR-4 in the pharynx, transgenic gravid adults at 24 hours post L4 were placed on NGM plates to lay eggs for 4 hours at 25° C. and then removed from the plates.

[3] = Protease activity of recombinant proteins in vitro; format: biochemical; settings: 2.8 μM tCPR-4 proteins, 0.27 μM rhCTSB; z-Arg-Arg-AMC
Method: Measurement of protease activity in vitro. The CPR-4 enzymatic assays were performed following the method described previously with some modifications. The cathepsin B-specific fluorogenic substrate, Z-Arg-Arg-7-amido-4-methylcoumarin hydrochloride (z-Arg-Arg-AMC; Peptanova, catalog number 88937-61-5), was dissolved in 2×reaction buffer, containing 25 mM Tris-HCl (pH 8.0), 100 mM NaCl, 10% (v/v) Glycerol, 0.8 mM Sodium Acetate (pH6.0), and 8 mM EDTA. For the assays, 10 μL of proteins (100 ng/μL) or 10 μL of conditioned medium (100 ng/μL) were incubated with 10 μL of 20 μM z-Arg-Arg-AMC at 25° C. for 10 minutes before measuring the […]. Enzymatic activities were determined as the mean velocities at 25° C. in a dual luminescence fluorometer EnVision (Perkin-Elmer) at an excitation wavelength of 380 nm and an emission wavelength of 460 nm, and expressed as relative intensity in kilo relative fluorescence unit (kRFU). Recombinant human cathepsin B (rhCTSB; Sino Biological Inc., catalog number 10483-H08H-10) was dissolved in a buffer recommended by the manufacturer [25 mM Tris-HCl (pH 8.0), 100 mM NaCl, 10% (v/v) glycerol, 5 mM DTT, and 0.1% Triton-X]. The buffer control unique to the CPR-4 proteins or the rhCTSB protein, or the sham-irradiated conditioned medium, was also measured using the same procedures. S-Medium was used in each experiment as the background control.

[4] = tested on: germ cell corpses in ced-1(e1735) animals; assay: Germ cell corpse assay with recombinant proteins in liquid culture; format: in vivo, C. elegans; settings: 2.8 μM tCPR-4 proteins or 0.27 μM rhCTSB, L4 larvae, 48 hours
Method: Growing C. elegans animals in 96-well plates. HB101 bacteria were mixed with 100 μL conditioned medium (0.1 μg/μL) or 100 μL S-Medium containing 2.8 μM of recombinant tCPR-4 proteins (wild-type or mutant) or 0.27 μM recombinant human cathepsin B in a 96-well plate. Approximately 60 L4 larvae were transferred into each well of the plate. After being cultured in liquid media for 48 hours, these animals were scored for the numbers of germ cell corpses and mitotic nuclei. Quantification of germ cell corpses. L4 animals were cultured in liquid media in a 96-well plate as described above. After 48 hours, they were transferred to NGM plates and allowed to recover for 1 hour at 20° C. The animals were then anesthetized by 20 mM NaN3, mounted onto 2% agar pad, and scored under Nomarski optics. For transgenic animals expressing CPR-4 in the pharynx, L4 animals were grown on NGM plates for 24 hours at 20° C. before they were scored for germ cell corpses. Only the posterior arms of intact gonads were scored. Blind tests were carried out in all germ cell corpse quantification experiments.

[5] = read-out: IC50 in inhibiting the CTSB protease activity
[6] = read-out: IC50 in inhibiting CTSB

Molecule: O=c1c(O)c(-c2ccc(O)c(O)c2)oc2cc(O)cc(O)c12 [Quercetin, 2-(3,4-dihydroxyphenyl)-3,5,7-trihydroxy-4H-chromen-4-one]
- inhibition at 1000 µM [1]: 80.7%
- Inhibition of the activity of CTSB (in words) (CTSB protease): inhibit the activity of CTSB
- Inhibition rate (%) of the CTSB protease activity (CTSB protease): 82.42%
- inhibition at 1000 µM (CTSB protease): 65 to 85%
- IC50 (CTSB protease; [5]): 1870 nM

Molecule: CC(C)C[C@H](NC(=O)[C@@H]1O[C@H]1C(=O)O)C(=O)NCCCCNC(=N)N [E64, N—[N-(L-3-Trans-carboxirane-2-carbonyl)-L-leucyl]-agmatine, reference compound]
- inhibition at 1000 µM [1]: 89.6%
- inhibition at 1000 µM (CTSB protease): 92.1%
- IC50 (CTSB protease; [6]): ≤ 20 nM
- IC50 (CTSB protease; [5]): 20 nM

Molecule: O=C(OC[C@H]1O[C@@H](OC(=O)c2cc(O)c(O)c(OC(=O)c3cc(O)c(O)c(O)c3)c2)[C@H](OC(=O)c2cc(O)c(O)c(OC(=O)c3cc(O)c(O)c(O)c3)c2)[C@@H](OC(=O)c2cc(O)c(O)c(OC(=O)c3cc(O)c(O)c(O)c3)c2)[C@@H]1OC(=O)c1cc(O)c(O)c(OC(=O)c2cc(O)c(O)c(O)c2)c1)c1cc(O)c(O)c(OC(=O)c2cc(O)c(O)c(O)c2)c1 [Tannic acid]
- inhibition at 1000 µM (CTSB protease): 69.3%

Molecule: Nc1nc2ncc(CNc3ccc(C(=O)N[C@@H](CCC(=O)O)C(=O)O)cc3)nc2c(=O)[nH]1 [Folic acid]
- Enhancement of the activity of the CTSB protease (CTSB protease): more than 4 folds
- EC50 (CTSB protease; read-out: EC50 (activation of the CTSB protease)): 1260 nM

Molecule: CCCNC(=O)[C@H]1O[C@@H]1C(=O)N[C@H](C(=O)N1CCC[C@H]1C(=O)O)[C@@H](C)CC (relative stereo) [CA074, N-(1-3-trans-propylcarbamoyloxirane-2-carbonyl)-1-isoleucyl-1-proline, reference compound]
- Bystander Phsp-4::gfp response in posterior unexposed regions after LUI at the head [2]: abolished the bystander Phsp-4::gfp response
- Inhibition rate (%) of the CTSB protease activity (CTSB protease): best inhibitory effects
- inhibition at 1000 µM (CTSB protease): 91.8%

Molecule: O=c1c(O[C@@H]2O[C@H](CO)[C@@H](O)[C@H](O)[C@H]2O)c(-c2ccc(O)c(O)c2)oc2cc(O)cc(O)c12 [Isoquercitrin, 2-(3,4-Dihydroxyphenyl)-5,7-dihydroxy-3-[(2S,3R,4S,5S,6R)-3,4,5-trihydroxy-6-(hydroxymethyl)oxan-2-yl]oxychromen-4-one]
- Inhibition of the activity of CTSB (in words) (CTSB protease): inhibit the activity of CTSB
- Inhibition rate (%) of the CTSB protease activity (CTSB protease): 68.98%
- inhibition at 1000 µM (CTSB protease): 65 to 85%

Molecule: O=c1cc(-c2ccc(O)cc2)oc2cc(O)cc(O)c12 [Apigenin, 5,7-Dihydroxy-2-(4-hydroxyphenyl)-4H-1-benzopyran-4-one]
- Inhibition rate (%) of the CTSB protease activity (CTSB protease): 70.93%
- inhibition at 1000 µM (CTSB protease): 65 to 85%

Molecule: O=c1cc(-c2ccccc2)oc2cc(O)c(O)c(O)c12 [Baicalein, 5,6,7-Trihydroxy-2-phenyl-chromen-4-one]
- inhibition at 1000 µM [1]: 41.5%
- inhibition at 1000 µM (CTSB protease): 65 to 85%
- IC50 (CTSB protease; [5]): 870 nM

Molecule: CCCNC(=O)[C@H]1O[C@@H]1C(=O)N[C@H](C(=O)N1CCC[C@H]1C(=O)OC)[C@@H](C)CC [CA074Me, CA074 methyl ester, reference compound]
- Bystander Phsp-4::gfp response in posterior unexposed regions after LUI at the head [2]: abolished the bystander Phsp-4::gfp response
- Inhibition rate (%) of the CTSB protease activity (CTSB protease): best inhibitory effects
- inhibition at 1000 µM (CTSB protease): 88.1%
- IC50 (CTSB protease; [6]): ≤ 20 nM
- IC50 (CTSB protease; [5]): < 10 nM

Molecule: NH2-Arg-Leu-Ala-COOH—Se
- Inhibition rate (%) of the CTSB protease activity (CTSB protease): 86.93%

B1: tCPR-4(N301A): tCPR-4 with mutation N301A changing a non-catalytic residue (protein, UniProt P43508 81-335, looked up, variant N301A)
Cathepsin B-like cysteine …: IPATFDARTQWPNCMSINNIRDQSDCGSCWAFAAAEAASDRFCIASNGAVNTLLSAEDVLSCCSNCGYGCEGGYPINAWKYLVKSGFCTGGSYEAQFGCKPYSLAPCGETVGNVTWPSCPDDGYDTPACVNKCTNKNYNVAYTADKHFGSTAYAVGKKVSQIQAEIIAHGPVEAAFTVYEDFYQYKTGVYVHTTGQELGGHAIRILGWGTDNGTPYWLVAASWNVNWGENGYFRIIRGTNECGIEHAVVGGVPKV
- Embryonic lethality of treated N2 animals (N2 animals): increased embryonic lethality
- Protease activity of recombinant protein [3]: did not affect tCPR-4 protease activity
- Germ cell corpses in ced-1(e1735) animals [4]: reduced germ cell corpses

B2: tCPR-4(H281A) (protein, UniProt P43508 81-335, looked up, variant H281A)
Cathepsin B-like cysteine …: IPATFDARTQWPNCMSINNIRDQSDCGSCWAFAAAEAASDRFCIASNGAVNTLLSAEDVLSCCSNCGYGCEGGYPINAWKYLVKSGFCTGGSYEAQFGCKPYSLAPCGETVGNVTWPSCPDDGYDTPACVNKCTNKNYNVAYTADKHFGSTAYAVGKKVSQIQAEIIAHGPVEAAFTVYEDFYQYKTGVYVHTTGQELGGAAIRILGWGTDNGTPYWLVANSWNVNWGENGYFRIIRGTNECGIEHAVVGGVPKV
- Embryonic lethality of treated N2 animals (N2 animals): failed to do so
- Protease activity of recombinant protein [3]: abolished the protease activity
- Germ cell corpses in ced-1(e1735) animals [4]: failed to do so

B3: tCPR-4(C109A): tCPR-4 with mutation of the conserved catalytic Cysteine residue (protein, UniProt P43508 81-335, looked up, variant C109A)
Cathepsin B-like cysteine …: IPATFDARTQWPNCMSINNIRDQSDCGSAWAFAAAEAASDRFCIASNGAVNTLLSAEDVLSCCSNCGYGCEGGYPINAWKYLVKSGFCTGGSYEAQFGCKPYSLAPCGETVGNVTWPSCPDDGYDTPACVNKCTNKNYNVAYTADKHFGSTAYAVGKKVSQIQAEIIAHGPVEAAFTVYEDFYQYKTGVYVHTTGQELGGHAIRILGWGTDNGTPYWLVANSWNVNWGENGYFRIIRGTNECGIEHAVVGGVPKV
- Embryonic lethality of treated N2 animals (N2 animals): failed to do so
- Protease activity of recombinant protein [3]: abolished the protease activity
- Germ cell corpses in ced-1(e1735) animals [4]: failed to do so
